Target: T1, Human complement C1s enzyme (Homo sapiens, UniProt P09871)
T1 construct: purified from human serum, Complement Technology, Inc; purchased Complement Technology, Inc; host or cells: human serum
T1 sequence (P09871 438-688 limits assumed): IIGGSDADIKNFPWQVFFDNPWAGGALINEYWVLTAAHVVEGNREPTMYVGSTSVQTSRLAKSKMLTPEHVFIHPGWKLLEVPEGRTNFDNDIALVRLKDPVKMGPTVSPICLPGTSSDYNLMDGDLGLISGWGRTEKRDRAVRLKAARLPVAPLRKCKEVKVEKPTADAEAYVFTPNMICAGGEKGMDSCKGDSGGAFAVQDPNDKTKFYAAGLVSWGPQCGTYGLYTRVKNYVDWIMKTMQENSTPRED
T1 sequence (P09871 16-437 partner limits assumed): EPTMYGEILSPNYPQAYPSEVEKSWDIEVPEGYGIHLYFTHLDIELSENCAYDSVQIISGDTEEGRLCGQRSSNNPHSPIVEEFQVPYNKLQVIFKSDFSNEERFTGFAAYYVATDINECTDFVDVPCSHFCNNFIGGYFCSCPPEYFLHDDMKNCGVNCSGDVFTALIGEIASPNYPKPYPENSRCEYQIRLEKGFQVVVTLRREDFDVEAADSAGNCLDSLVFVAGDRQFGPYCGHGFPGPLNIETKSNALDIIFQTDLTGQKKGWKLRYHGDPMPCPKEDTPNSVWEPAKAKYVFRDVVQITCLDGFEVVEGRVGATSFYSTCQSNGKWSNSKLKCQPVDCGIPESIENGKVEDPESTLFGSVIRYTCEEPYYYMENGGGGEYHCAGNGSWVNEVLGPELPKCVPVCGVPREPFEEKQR
Test: Human C1s Enzyme Assay
Format: biochemical
Details: human C1s 1.16 nM, 5 min preincubation, substrate Z-L-Lys-SBzl 100 μM, A405; read-out: C1s Protease Activity
Protocol: The assay of Example 3 was used to determine the IC50's of the compounds. Other standard complement assays are also available.
Example 3. Human C1s Enzyme Assay
Human complement C1s enzyme (purified from human serum, Complement Technology, Inc.) at 1.16 nM final concentration was incubated with test compound at various concentrations for 5 min at room temperature in 50 mM Tris, 1 M NaCl, pH 7.5. A synthetic substrate Z-L-Lys-SBzl and DTNB (Ellman's reagent) were added to final concentrations of 100 μM each. Absorbance at 405 nm (A405) was recorded at 30 second intervals for 30 min using a microplate spectrophotometer. IC50 values were calculated by nonlinear regression of complement C1s reaction rates as a function of test compound concentration.

Structure (SMILES)	IC50
CO[C@H]1[C@@H](C(=O)NCc2cc(C(=N)N)cs2)N(C(=O)CNC(=O)CCCOc2ccccc2)C[C@@H]1F [Compound 113, (2S,3S,4S)-N-((4-carbamimidoylthiophen-2-yl)methyl)-4-fluoro-3-methoxy-1-((4-phenoxybutanoyl)glycyl)pyrrolidine-2-carboxamide]	0.1 to 1 µM
C[C@@]12C[C@@H]1N(C(=O)CNC(=O)c1ccc(Oc3ccccc3)cc1)[C@H](C(=O)NCc1nc(C(=N)N)cs1)C2 [Compound 2, (1S,3S,5S)-N-((4-carbamimidoylthiazol-2-yl)methyl)-5-methyl-2-((4-phenoxy-benzoyl)glycyl)-2-azabicyclo[3.1.0]hexane-3-carboxamide]	< 0.1 µM
C[C@@]12C[C@@H]1N(C(=O)CNC(=O)CCCOc1cccc3ccccc13)[C@H](C(=O)NCc1cc(C(=N)N)cs1)C2 [Compound 207, (1S,3S,5S)-N-((4-carbamimidoylthiophen-2-yl)methyl)-5-methyl-2-((4-(naphthalen-1-yloxy)butanoyl)glycyl)-2-azabicyclo[3.1.0]hexane-3-carboxamide]	< 0.1 µM
N=C(N)c1csc(CNC(=O)[C@@H]2C[C@@H](C(F)F)CN2C(=O)CNC(=O)CCCOc2ccccc2)c1 [Compound 147, (2S,4R)-N-((4-carbamimidoylthiophen-2-yl)methyl)-4-(difluoromethyl)-1-((4-phenoxybutanoyl)glycyl)pyrrolidine-2-carboxamide]	0.1 to 1 µM
C[C@@H](NC(=O)[C@@H]1C[C@@H](OC(F)F)CN1C(=O)CNC(=O)c1ccc(C(=O)c2ccccc2)cc1)c1cc(C(=N)N)cs1 [Compound 203, (2S,4R)-1-((4-benzoylbenzoyl)glycyl)-N-((R)-1-(4-carbamimidoylthiophen-2-yl)ethyl)-4-(difluoromethoxy)pyrrolidine-2-carboxamide]	< 0.1 µM
C[C@@]12C[C@@H]1N(C(=O)CN1Cc3cc(Oc4ccccc4)ccc3C1=O)[C@H](C(=O)NCc1cc(C(=N)N)cs1)C2 [Compound 101, (1S,3S,5S)-N-((4-carbamimidoylthiophen-2-yl)methyl)-5-methyl-2-(2-(1-oxo-5-phenoxyisoindolin-2-yl)acetyl)-2-azabicyclo[3.1.0]hexane-3-carboxamide]	< 0.1 µM
C[C@@]12C[C@@H]1N(C(=O)CNC(=O)c1ccc(Oc3ccccc3)cc1)[C@H](C(=O)OCc1cc(C(=N)N)cs1)C2 [Compound 89, (1S,3S,5S)-(4-carbamimidoylthiophen-2-yl)methyl 5-methyl-2-((4-phenoxybenzoyl)glycyl)-2-azabicyclo[3.1.0]hexane-3-carboxylate]	< 0.1 µM
C[C@@H](NC(=O)[C@@H]1C[C@@]2(CN1C(=O)CNC(=O)CCCOc1ccccc1)CC2(F)F)c1cc(C(=N)N)cs1 [Compound 105, (3S,6S)-N-((R)-1-(4-carbamimidoylthiophen-2-yl)ethyl)-1,1-difluoro-5-((4-phenoxy-butanoyl)glycyl)-5-azaspiro[2.4]heptane-6-carboxamide]	0.1 to 1 µM
CO[C@@H]1C[C@@H](C(=O)N[C@H](C)c2cc(C(=N)N)cs2)N(C(=O)CNC(=O)c2ccc(Oc3ccccc3)cc2)C1 [Compound 185, (2S,4R)-N-((R)-1-(4-carbamimidoylthiophen-2-yl)ethyl)-4-methoxy-1-((4-phenoxybenzoyl)glycyl)pyrrolidine-2-carboxamide]	< 0.1 µM
N=C(N)c1csc(CNC(=O)[C@@H]2C[C@@H](C3CCCCC3)CN2C(=O)CNC(=O)c2ccc(Oc3ccccc3)cc2)c1 [Compound 61, (2S,4S)-N-((4-carbamimidoylthiophen-2-yl)methyl)-4-cyclohexyl-1-((4-phenoxy-benzoyl)glycyl)pyrrolidine-2-carboxamide]	0.1 to 1 µM
C[C@@H](NC(=O)[C@@H]1C[C@]2(C)C[C@@H]2N1C(=O)CNC(=O)CCCOc1ccccc1)c1cc(C(=N)N)cs1 [Compound 122, (1S,3S,5S)-N-((R)-1-(4-carbamimidoylthiophen-2-yl)ethyl)-5-methyl-2-((4-phenoxy-butanoyl)glycyl)-2-azabicyclo[3.1.0]hexane-3-carboxamide]	< 0.1 µM
C[C@@]12C[C@@H]1N(C(=O)CNC(=O)c1cc3cc(Oc4ccccc4)ccc3o1)[C@H](C(=O)NCc1cc(C(=N)N)cs1)C2 [Compound 132, (1S,3S,5S)-N-((4-carbamimidoylthiophen-2-yl)methyl)-5-methyl-2-((5-phenoxybenzofuran-2-carbonyl)glycyl)-2-azabicyclo[3.1.0]hexane-3-carboxamide]	< 0.1 µM
C[C@@]12C[C@@H]1N(C(=O)CNC(=O)CCOc1ccccc1)[C@H](C(=O)NCc1cc(C(=N)N)cs1)C2 [Compound 58, (1S,3S,5S)-N-((4-carbamimidoylthiophen-2-yl)methyl)-5-methyl-2-((3-phenoxy-propanoyl)glycyl)-2-azabicyclo[3.1.0]hexane-3-carboxamide]	< 0.1 µM

Now from value to molecule:

IC50	Structure (SMILES)
< 0.1 µM	C[C@@H](NC(=O)[C@@H]1C[C@]2(C)C[C@@H]2N1C(=O)CNC(=O)[C@H](CCOc1ccccc1)NC(=O)CCC(=O)O)c1cc(C(=N)N)cs1 [Compound 184, 4-(((S)-1-((2-((1S,3S,5S)-3-(((R)-1-(4-carbamimidoylthiophen-2-yl)ethyl)carbamoyl)-5-methyl-2-azabicyclo[3.1.0]hexan-2-yl)-2-oxoethyl)amino)-1-oxo-4-phenoxybutan-2-yl)amino)-4-oxobutanoic acid]
< 0.1 µM	N=C(N)c1csc(CNC(=O)C2CC3(CCC3)CN2C(=O)CNC(=O)CCCOc2ccccc2)c1 (stereo not shown) [Compound 261, N-((4-carbamimidoylthiophen-2-yl)methyl)-6-((4-phenoxybutanoyl)glycyl)-6-azaspiro[3.4]octane-7-carboxamide]
0.1 to 1 µM	N=C(N)c1csc(CNC(=O)[C@@H]2CC3(CCCC3)CN2C(=O)CNC(=O)CCCOc2ccccc2)c1 [Compound 82, (S)-N-((4-carbamimidoylthiophen-2-yl)methyl)-2-((4-phenoxybutanoyl)glycyl)-2-azaspiro[4.4]nonane-3-carboxamide]
> 1 µM	N=C(N)c1csc([C@@H](NC(=O)[C@@H]2CC3(CN2C(=O)CNC(=O)CCCOc2ccccc2)OCCO3)C2CCCC2)c1 [Compound 179, (S)-N-((S)-(4-carbamimidoylthiophen-2-yl)(cyclopentyl)methyl)-7-((4-phenoxybutanoyl)glycyl)-1,4-dioxa-7-azaspiro[4.4]nonane-8-carboxamide]
< 0.1 µM	C[C@@H](NC(=O)[C@@H]1C[C@]2(COCCNC(=O)COCCOCCNC(=O)COCCOCCNC(=O)CC[C@H](NC(=O)CCCCCCCCCCCCCCCCC(=O)O)C(=O)O)C[C@@H]2N1C(=O)CNC(=O)CCCOc1ccccc1)c1cc(C(=N)N)cs1 [Compound 152, (S)-1-((1S,3S,5R)-3-(((R)-1-(4-carbamimidoylthiophen-2-yl)ethyl)carbamoyl)-2-((4-phenoxybutanoyl)glycyl)-2-azabicyclo[3.1.0]hexan-5-yl)-27-carboxy-6,15,24,29-tetraoxo-2,8,11,17,20-pentaoxa-5,14,23,28-tetraazahexatetracontan-46-oic acid]
< 0.1 µM	N=C(N)c1csc(CNC(=O)[C@@H]2C[C@@H](Cc3ccc(C(F)(F)F)cc3)CN2C(=O)CNC(=O)c2ccc(Oc3ccccc3)cc2)c1 [Compound 17, (2S,4R)-N-((4-carbamimidoylthiophen-2-yl)methyl)-1-((4-phenoxybenzoyl)glycyl)-4-(4-(trifluoromethyl)benzyl)pyrrolidine-2-carboxamide]
< 0.1 µM	N=C(N)c1csc(CNC(=O)[C@@H]2C[C@H](c3ccc(F)cc3)CN2C(=O)CNC(=O)CCCOc2ccccc2)c1 [Compound 159, (2S,4R)-N-((4-carbamimidoylthiophen-2-yl)methyl)-4-(4-fluorophenyl)-1-((4-phenoxybutanoyl)glycyl)pyrrolidine-2-carboxamide]
> 1 µM	COc1ccc(CNC(=O)[C@@H]2C[C@]3(C)C[C@@H]3N2C(=O)CNC(=O)c2ccc(Oc3ccccc3)cc2)cc1 [Compound 43, (1S,3S,5S)-N-(4-methoxybenzyl)-5-methyl-2-((4-phenoxy-benzoyl)-glycyl)-2-azabicyclo[3.1.0]hexane-3-carboxamide]
< 0.1 µM	C[C@@H](NC(=O)[C@@H]1CC2(CN1C(=O)CNC(=O)c1ccc(C(=O)c3ccccc3)cc1)OCCO2)c1cc(C(=N)N)cs1 [Compound 219, (S)-7-((4-benzoylbenzoyl)glycyl)-N-((R)-1-(4-carbamimidoylthiophen-2-yl)ethyl)-1,4-dioxa-7-azaspiro[4.4]nonane-8-carboxamide]

Source: patent US20250171423A1, “PHARMACEUTICAL COMPOUNDS FOR THE TREATMENT OF COMPLEMENT MEDIATED DISORDERS” (Achillion Pharmaceuticals, Inc., priority 2020, published 2025)
